{"source": "patent US20260144769A1", "about": "“4-PHENYLBUTYRATE RESTORED GABA UPTAKE AND REDUCED SEIZURES IN SLC6A1 VARIANT-MEDIATED DISORDERS” (Vanderbilt University, priority 2022, published 2026)", "target": "T1, wildtype GAT-1 + GAT-1(E16X) (Rattus norvegicus, UniProt P23978)", "T1 construct": "expressed in transfected cells; host or cells: HEK293T cells", "test": "3H GABA uptake, HEK293T, mixture of wildtype and mutant cDNAs (\"heterozygous\")", "assay_type": "cell-based", "settings": "wildtype:E16X cDNAs 1:1; PBA 2 mM, 24 hrs", "description": "GABA uptake activity was measured by the high-throughput 3H radio-labeling GABA uptake on a liquid scintillator with QuantaSmart. […] HEK293T cells were transfected with the wildtype or the mutant GAT-1^YFP cDNAs alone for 48 hr. […] HEK293T cells were transfected with the wildtype GAT-1^YFP alone or in mixture of the wildtype or the mutant cDNAs for 48 hr. In the mixed condition, the ratio of the wildtype GAT-1 with pcDNA or the mutant cDNAs are 1:1 with the total cDNA amount of 0.5 μg. […] Both wt and the mutant were normalized to its own DMSO treated conditions. 966 stands for the wildtype treated with CI-966 (50 μM) while 711 stands for NNC-711 (35 μM). (N=4-7 different transfections. In FIG. 4A and FIG. 4B, *P<0.05, **P<0.01, ***p<0.001 vs. wt 0. In FIG. C and FIG. 4D, *P<0.05, **P<0.01, ***p<0.001 vs. its own DMSO treated. In FIG. 4C, ns stands for no significance. One-way analysis of variance (ANOVA) and Newman-Keuls test. Values were expressed as mean±S.E.M.\nThe plasmid cDNA encoding enhanced yellow fluorescent protein (EYFP)-tagged rat GAT-1 has been previously described. […]\nBriefly, cells were cultured in […] dishes for 3 days before the GABA uptake experiment in DMEM with 10% fetal bovine serum and 1% penicillin/streptomycin. […] Glacial acetic acid was added, and lysates were then determined on a liquid scintillator with QuantaSmart. […]"}
{"smiles": "O=C(O)CCCc1ccccc1", "note": "[PBA, 4-phenylbutyric acid]", "values": [{"measurement": "GABA uptake normalized to its own DMSO treated condition", "result": "1.149±0.025"}]}
